Source: patent US9969758B2, “Antimicrobial compounds” (BIOMERIEUX, priority 2014, dated 2018)
Values after ≈ are worked out from the molar mass of the structure shown.

Tests used:
Test in all cases: MIC by agar dilution, single strains
Type in all cases: cell-based
[1] = test system: Staphylococcus aureus NCTC 11939 (SARM); details: NCTC11939, 22 hours of incubation, read-out: Minimum inhibitory concentration (MIC)
Protocol: (§1) Determining the minimum inhibitory concentrations (MIC). All the MICs were determined using an agar dilution method. This required use of a medium without a defined antagonist (peptone-free), prepared as described previously with the inclusion of 2% horse blood lysed with saponin, 25.0 μg/mL of NAD and 25.0 μg/mL of hemin [17]. The compounds tested were dissolved in sterile deionised water and incorporated into the agar medium in a concentration range of 0.0031 to 8.0 μg/mL (0.016 to 32 μg/mL for gram-positive bacteria). All the isolates were prepared at a density equivalent to 0.5 McFarland units in sterile deionised water using a densitometer (approximately 1.5×10^8 CFU/mL), and then diluted to 1 for 15. An aliquot of 1 μL of each diluted suspension was then placed onto plates with a multispot inoculator to give the final recommended inoculation of 10 000 CFU/spot. The MICs of fosfomycin were determined by the same method, except that the IsoSensitest medium (Oxoid, Basingstoke, United Kingdom) was used, plus 25.0 μg/mL of glucose-6-phosphate (Sigma, Poole, United Kingdom) and an extended range of fosfomycin concentrations. All the dishes (including the antimicrobial-free controls) were incubated for 22 hours at 37° C. All the tests were performed on at least two independent replicates in order to examine the reproducibility.

[2] = test system: Serratia marcescens NCTC 10211; details: NCTC10211, 22 hours of incubation, read-out: Minimum inhibitory concentration (MIC)
Protocol: as §1

[3] = test system: Burkholderia cepacia ATCC 25416; details: ATCC25416, 22 hours of incubation, read-out: Minimum inhibitory concentration (MIC)
Protocol: as §1

[4] = test system: Providencia rettgeri NCTC 7475; details: NCTC7475, 22 hours of incubation, read-out: Minimum inhibitory concentration (MIC)
Protocol: as §1

[5] = test system: Acinetobacter baumannii ATCC 19606; details: ATCC19606, 22 hours of incubation, read-out: Minimum inhibitory concentration (MIC)
Protocol: as §1

[6] = test system: Enterococcus faecium NCTC 7171; details: NCTC7171, 22 hours of incubation, read-out: Minimum inhibitory concentration (MIC)
Protocol: as §1

[7] = test system: Pseudomonas aeruginosa NCTC 10662; details: NCTC10662, 22 hours of incubation, read-out: Minimum inhibitory concentration (MIC)
Protocol: as §1

[8] = test system: Escherichia coli NCTC 10418; details: NCTC10418, 22 hours of incubation, read-out: Minimum inhibitory concentration (MIC)
Protocol: as §1

[9] = test system: Enterococcus faecalis NCTC 775; details: NCTC775, 22 hours of incubation, read-out: Minimum inhibitory concentration (MIC)
Protocol: as §1

[10] = test system: Enterobacter cloacae NCTC 11936; details: NCTC11936, 22 hours of incubation, read-out: Minimum inhibitory concentration (MIC)
Protocol: as §1

[11] = test system: Yersinia enterocolitica NCTC 11176; details: NCTC11176, 22 hours of incubation, read-out: Minimum inhibitory concentration (MIC)
Protocol: as §1

[12] = test system: Escherichia coli NCTC 12241; details: NCTC12241, 22 hours of incubation, read-out: Minimum inhibitory concentration (MIC)
Protocol: as §1

[13] = test system: Klebsiella pneumoniae NCTC 9528; details: NCTC9528, 22 hours of incubation, read-out: Minimum inhibitory concentration (MIC)
Protocol: as §1

[14] = test system: Listeria monocytogenes NCTC 11994; details: NCTC11994, 22 hours of incubation, read-out: Minimum inhibitory concentration (MIC)
Protocol: as §1

[15] = test system: Staphylococcus aureus NCTC 6571; details: NCTC6571, 22 hours of incubation, read-out: Minimum inhibitory concentration (MIC)
Protocol: as §1

[16] = test system: Staphylococci epidermidis NCTC 11047; details: 22 hours of incubation, read-out: Minimum inhibitory concentration (MIC)
Protocol: as §1

[17] = test system: Salmonella typhimurium NCTC 74; details: Salmonella enterica, 22 hours of incubation, read-out: Minimum inhibitory concentration (MIC)
Protocol: as §1

[18] = test system: Salmonella enteritidis NCTC 6676; details: Salmonella enterica, 22 hours of incubation, read-out: Minimum inhibitory concentration (MIC)
Protocol: as §1

MIC [1]: > 8 µg/mL | MIC [2]: 0.5 µg/mL (≈ 1.52 µM) | MIC [3]: > 8 µg/mL | MIC [4]: > 8 µg/mL | MIC [5]: > 8 µg/mL | MIC [6]: 1 µg/mL (≈ 3.03 µM) | MIC [7]: > 8 µg/mL | MIC [8]: 1 µg/mL (≈ 3.03 µM) | MIC [9]: 0.063 µg/mL (≈ 0.191 µM) | MIC [10]: 4 µg/mL (≈ 12.1 µM) | MIC [11]: 0.25 µg/mL (≈ 0.758 µM) | MIC [12]: 0.5 µg/mL (≈ 1.52 µM) | MIC [13]: 0.5 µg/mL (≈ 1.52 µM) | MIC [14]: > 8 µg/mL | MIC [15]: 4 µg/mL (≈ 12.1 µM) | MIC [16]: 2 µg/mL (≈ 6.07 µM) | MIC [17]: > 8 µg/mL | MIC [18]: > 8 µg/mL
Structure (SMILES): CCC[C@H](N)C(=O)N[C@@H](CCl)C(=O)NC(C)P(=O)(O)O (stereo partly drawn) [compound G, L-Norvalinyl-β-chloro-L-alanyl-D/L-fosfalin]
